Assay results as given in paper PMC12250211, “Discovery of Novel Genes Encoding Antimicrobial Peptides from the Pedobacter silvilitoris Genome with Broad-Spectrum Antimicrobial Activity” (International Journal of Molecular Sciences, 2025).
Ends that are not written are not given here.

Tests used:
[1] = tested on: Staphylococcus aureus (ATCC 6538); experiment: Microtiter plate antimicrobial assay (relative growth rate, A600); format: cell-based; settings: synthetic peptide; for MIC50: 10 mg/mL stock in distilled water, 10^6 CFU/mL, overnight culture 37 °C, A600, Figure 5B
Experimental: (§1) The cell-free supernatant of P. silvilitoris or all E. coli DH5α strains containing cloned AMPs was collected after 24 h of culture and filtered through a 0.2-μm syringe (mixed cellulose esters (MCE), Merck, Darmstadt, Germany), and finally the cell-free supernatant was used for the evaluation of antimicrobial activity. The cell-free supernatant from the E. coli DH5α, harboring only the plasmid vector without the PS_AMP genes, was confirmed as a negative control to have very little effect on antimicrobial activities. The synthesized AMPs were suspended at a concentration of 10 mg/mL in distilled water and then used for antimicrobial activity.
(§2) The antimicrobial activities against S. Typhimurium (KCTC12401), E. coli (ATCC 10536), B. cereus (ATCC 11778), S. iniae (KCTC3657), S. aureus (ATCC 6538) and C. albicans (KCTC7122) were analyzed using the microtiter plate method and expressed as minimal inhibition concentration (MIC); the bacteria pre-cultured overnight (O/N) were mixed with 10^6 CFU/mL with the cell-free supernatant or the synthetic peptides, the reaction mixtures were added to the microtiter plate, and finally the reactivity was observed by the O/N culture at 37 °C. […] The relative activity of the treated samples was then expressed as a ratio of their A600 values to that of the control.Relative growth rate = A/B A: the treated sample A600 value B: non-treated (control) A600 value

[2] = tested on: Escherichia coli (ATCC 10536); experiment: as above; format: cell-based; settings: synthetic peptide, 10 mg/mL stock in distilled water, 10^6 CFU/mL, overnight culture 37 °C, Figure 5A
Experimental: as §1, §2

Sequence | MIC50 [1] [µg/mL] | estimated MIC50 ([1]; test strain not printed, AMP4.1 value agrees with the S. aureus value of b25) [µg/mL] | MIC50 [2] [µg/mL]
DKGLEKTKDNFF [PS_AMP4.1] | 2200 |  | 
GLFDFFKKKDKTTDEQEALDK [PS_AMP4.2] |  | 3000 | 
LKLKKEQIELLKKIANK [PS_AMP11.1] | 2000 |  | 1900
